Among the data in patent US20260008780A1, “SUBSTITUTED 3,4-DIHYDROISOQUINOLIN-1(2H)-ONE DERIVATIVES AND RELATED USES” (NodThera Limited, priority 2022, published 2026) are IC50 values, retold here.

For the experiment, the system named is IL-1β release upon NLRP3 activation in peripheral blood mononuclear cells (PBMC). Briefly: PBMC IC50 Determination Assay. It counts as cell-based. The conditions noted are these: Homo sapiens; PBMC from buffy coats, LPS 3 h, compound 30 min, then ATP (5 mM) or nigericin (10 μM) 1 h; IL-1β in media by ELISA (Protocol A) or HTRF (Protocol B). The method, then:
The compounds of the present disclosure were tested for their inhibitory activity against IL-1β release upon NLRP3 activation in peripheral blood mononuclear cells (PBMC).
Protocol A. PBMC were isolated from buffy coats by density gradient centrifugation on Histopaque-1077 (Sigma, cat no. 10771). Isolated cells were seeded into the wells of a 96-well plate and incubated for 3 h with lipopolysaccharide (LPS). Following medium exchange, the compounds of the present disclosure were added (a single compound per well) and the cells were incubated for 30 min. Next, the cells were stimulated either with ATP (5 mM) or nigericin (10 μM) for 1 h and the cell culture media from the wells were collected for further analysis.
The release of IL-1β into the media was determined by a quantitative detection of IL-1β in the media using an IL-1p enzyme-linked immunosorbent assay (ELISA) Ready-SET-Go!, eBioscience cat. No. 88-7261-88. Briefly, in a first step, high affinity binding plates (Corning, Costar 9018 or NUNC Maxisorp Cat No. 44-2404) were coated overnight at 4° C. with specific capture antibody included in the kit (anti-human IL-1β ref 14-7018-68). Subsequently, plates were blocked with blocking buffer for 1 h at room temperature (rt) and after washing with a buffer (PBS with 0.05% Tween-20) incubated with protein standard and culture media. After 2 h of incubation at rt, plates were washed and incubated with biotinylated detection antibody included in the kit (anti-human IL-1β Biotin ref. 33-7110-68) for 1 h at rt. Plates were washed and incubated with HRP-streptavidin for 30 min at rt and washed again. The signal was developed after addition of 3,3′,5,5′-tetramethylbenzidine-peroxidase (TMB) until colour appeared and the reaction was stopped by 2 M H2SO4. A microplate spectrophotometer (BioTek) was used to detect signals with 450 nm. The detection range of IL-1β ELISA was […].
Protocol B. PBMC were isolated from buffy coats by density gradient centrifugation on Histopaque-1077 (Sigma, cat no. 10771). Isolated cells were seeded into the wells (280,000 cells/well) of a 96-well plate and incubated for 3 h with lipopolysaccharide (LPS, 1 μg/mL diluted 1000× from a 1 mg/mL stock solution). The compounds of the present disclosure were added (a single compound per well) and the cells were incubated for 30 min. Next, the cells were stimulated with ATP (5 mM final concentration diluted 20× from a 100 mM stock solution) for 1 h and the cell culture media from the wells were collected for further analysis.
The release of IL-1β into the media was determined by quantitative detection of IL-1β in the media using HTRF®, CisBio cat. No. 62HIL1BPEH. Briefly, cell culture supernatant were dispensed directly into the assay plate containing antibodies labelled with the HTRF® donor and acceptor. A microplate spectrophotometer (BMG) was used to detect signals at 655 nm and 620 nm. The detection range of IL-1β HTRF® was 39-6500 μg/mL.
On the technique in general: ELISA stands for enzyme-linked immunosorbent assay.
With `CC1CN(CC(=O)Nc2ncccn2)C(=O)c2cc(C3CC3)sc21` (centres unmarked) [Compound 70, 2-(2-Cyclopropyl-7-methyl-4-oxo-6,7-dihydrothieno[3,2-c]pyridin-5(4H)-yl)-N-(pyrimidin-2-yl)acetamide], the IC50 (commonly the concentration that inhibits the measured activity by half) lay within 3000 to 10000 nM.

The compound `CCc1cc2c(s1)C(=O)N(CC(=O)Nc1ncc3c(n1)[nH]c(=O)n3C)CC21CC1` [Compound 71, 2-(2′-Ethyl-7′-oxo-5′H-spiro[cyclopropane-1,4′-thieno[2,3-c]pyridin]-6′(7′H)-yl)-N-(7-methyl-8-oxo-8,9-dihydro-7H-purin-2-yl)acetamide] had an IC50 of 1000 to 3000 nM.

In turn, `CNc1nc2c(s1)C(=O)N(CC(=O)Nc1ncccn1)CC21CC1` [Compound 72, 2-(2′-(Methylamino)-4′-oxo-4′H-spiro[cyclopropane-1,7′-thiazolo[5,4-c]pyridin]-5′(6′H)-yl)-N-(pyrimidin-2-yl)acetamide] registered an IC50 of 3000 to 10000 nM.

For `CCNc1nc2c(s1)C(=O)N(CC(=O)Nc1ncccn1)CC2C` (centres unmarked) [Compound 73, 2-(2-(Ethylamino)-7-methyl-4-oxo-6,7-dihydrothiazolo[5,4-c]pyridin-5(4H)-yl)-N-(pyrimidin-2-yl)acetamide], the IC50 is 10000 to 50000 nM.

For the compound `CNc1cc2c(s1)C(=O)N(CC(=O)Nc1ncccn1)CC21CC1` [Compound 74, 2-(2′-(Methylamino)-7′-oxo-5′H-spiro[cyclopropane-1,4′-thieno[2,3-c]pyridin]-6′(7′H)-yl)-N-(pyrimidin-2-yl)acetamide], the IC50 was in the range of 100 to 1000 nM.

Compound `O=C(CN1CC2(CC2)c2cc(CC(F)F)sc2C1=O)Nc1ncccn1` [Compound 75, 2-(2′-(2,2-Difluoroethyl)-7′-oxo-5′H-spiro[cyclopropane-1,4′-thieno[2,3-c]pyridin]-6′(7′H)-yl)-N-(pyrimidin-2-yl)acetamide] returned an IC50 of 1000 to 3000 nM.

For the compound `O=C(CN1CC2(CC2)c2cc(C3CC3)sc2C1=O)Nc1ncc(F)cn1` [Compound 76, 2-(2′-Cyclopropyl-7′-oxo-5′H-spiro[cyclopropane-1,4′-thieno[2,3-c]pyridin]-6′(7′H)-yl)-N-(5-fluoropyrimidin-2-yl)acetamide], the IC50 was 100 to 1000 nM.

Compound `C[C@@H]1CN(CC(=O)Nc2ncccn2)C(=O)c2sc(C3CC3)nc21` [Compound 77] displayed an IC50 of 1000 to 3000 nM.
